Laboratory results from US6608027B1, “Macrocyclic peptides active against the hepatitis C virus” (Boehringer Ingelheim (Canada) Ltd, priority 1999, dated 2003).
pIC50: −log10 of the molar value. Where two headings read alike, the source gives them in different places.

Key:
HCV NS3 protease type 1b = HCV NS3 protease type 1b (Hepatitis C virus genotype 1b, UniProt P26663); assay: Recombinant HCV NS3 protease radiometric assay; assay type: biochemical
Method: The substrate used for the HCV NS3 protease radiometric assay, DDIVPC-SMSYTW (SEQ. ID NO.: 2), is cleaved between the cysteine and the serine residues by the enzyme. The sequence DDIVPC-SMSYTW (SEQ. ID NO.: 2) corresponds to the NS5A/NS5B natural cleavage site in which the cysteine residue in P2 has been substituted for a proline. The peptide substrate DDIVPC-SMSYTW (SEQ. ID NO.: 2) and the tracer biotin-DDIVPC-SMS[^125I-Y]TW (SEQ. ID NO.: 3) were incubated with the recombinant NS3 protease in the absence or in the presence of inhibitors. The separation of substrate from products was performed by adding avidin-coated agarose beads to the assay mixture followed by filtration. The amount of SMS[^125I-Y]TW (SEQ. ID NO.: 4) product found in the filtrate (with or without inhibitor) allowed for the calculation of the percentage of substrate conversion and of the percentage of inhibition.
Assay buffer: 50 mM Tris-HCl, pH 7.5, 30% (w/v) glycerol, 2% (w/ v) CHAPS, 1 mg/mL BSA, 1 mM TCEP (TCEP added just prior to use from a 1 M stock solution in water).
Substrate: DDIVPC-SMSYTW (SEQ. ID NO.: 2), 25 μM final concentration (from a 2 mM stock solution in DMSO stored at −20° C. to avoid oxidation).
Tracer: reduced mono-iodinated substrate(biotin-DDIVPC-SMS[^125I-Y]TW (SEQ. ID NO.: 3)) (≈1 nM final concentration).
HCV NS3 protease type 1b, 25 nM final concentration (from a stock solution in 50 mM sodium phosphate, pH 7.5, 10% glycerol, 300 mM NaCl, 5 mM DTT, 0.01% NP-40).
The assay was performed in a 96-well polypropylene plate. Each well contained:
20 μL substrate/tracer in assay buffer;
10 μL±inhibitor in 20% DMSO/assay buffer;
Blank (no inhibitor and no enzyme) and control (no inhibitor) were also prepared on the same assay plate.
The enzymatic reaction was initiated by the addition of the enzyme solution and the assay mixture was incubated for 60 min at 23° C. under gentle agitation. Twenty (20) μL of 0.025 N NaOH were added to quench the enzymatic reaction.
Twenty (20) μL of avidin-coated agarose beads (purchased from Pierce®) were added in a Millipore® MADP N65 filtration plate. The quenched assay mixture was transferred to the filtration plate, and incubated for 60 min at 23° C. under gentle agitation.
The plates were filtered using a Millipore® MultiScreen Vacuum Manifold Filtration apparatus, and 40 μL of the filtrate was transferred to an opaque 96-well plate containing 60 μL of scintillation fluid per well.
The filtrates were counted on a Packard® TopCount instrument using a ^125I-liquid protocol for 1 minute. The %inhibition was calculated with the following equation:
100−[(countsinh−countsblank)/(countsctl−countsblank)×100] […]

[1] = asterisk (*) = radiometric assay of Example 49, read-out: enzyme activity (IC50 grade), asterisk

Sequence of HCV NS3 protease type 1b (P26663 1027-1208): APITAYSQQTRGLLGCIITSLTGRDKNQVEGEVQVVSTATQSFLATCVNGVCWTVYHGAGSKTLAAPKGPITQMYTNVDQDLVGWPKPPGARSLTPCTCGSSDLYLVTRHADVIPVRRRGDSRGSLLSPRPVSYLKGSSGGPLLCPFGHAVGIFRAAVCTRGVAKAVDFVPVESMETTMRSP

Compound | pIC50 (HCV NS3 protease type 1b; [1]) | further results
COc1ccc2c(O[C@@H]3C[C@H]4C(=O)N[C@]5(C(=O)O)C[C@@H]5CCCCC[C@H](NC(=O)OC(C)(C)C)C(=O)N4C3)cc(-c3ccccc3)nc2c1 [Compound 306] | < 6.00 | 
COC(=O)[C@@]12CC1C=CCCCCC[C@H](NC(=O)OC(C)(C)C)C(=O)N1C[C@@H](O)C[C@H]1C(=O)N2 (stereo partly drawn) |  | ring closure, yield of all isomers (from C=CCCCCC[C@H](NC(=O)OC(C)(C)C)C(=O)N1C[C@@H](O)C[C@H]1C(=O)N[C@]1(C(=O)OC)CC1C=C, rcm bond, Hoveyda's catalyst, CH2Cl2, 9.85 mM, 40.0 °C, 28.0 h): 89%
COc1ccc2c(O[C@@H]3C[C@H]4C(=O)N[C@]5(C(=O)O)C[C@H]5CCN(C)CCCC[C@H](NC(=O)OC(C)(C)C)C(=O)N4C3)cc(-c3ccccc3)nc2c1 [Cpd 504] | < 6.00 | 
COc1ccc2c(O[C@@H]3C[C@H]4C(=O)N[C@]5(C(=O)O)C[C@H]5CC/C=C\CS[C@@H](C)[C@H](NC(=O)OC(C)(C)C)C(=O)N4C3)cc(-c3ccccc3)nc2c1 [Compound 411] | < 6.00 | 
COc1ccc2c(O[C@@H]3C[C@H]4C(=O)N[C@@]5(C(=O)O)C[C@@H]5/C=C\CCCCC[C@H](NC(=O)OC(C)(C)C)C(=O)N4C3)cc(-c3ccccc3)nc2c1 [Compound 210] |  | pIC50 (HCV NS3 protease type 1b): < 6.00
COC(=O)[C@@]12C[C@H]1CCCCNCC[C@H](NC(=O)OC(C)(C)C)C(=O)N1C[C@H](Oc3cc(-c4ccccc4)nc4cc(OC)ccc34)C[C@H]1C(=O)N2 |  | ring closure, yield of all isomers (from COC(=O)[C@@]1(NC(=O)[C@@H]2C[C@@H](Oc3cc(-c4ccccc4)nc4cc(OC)ccc34)CN2C(=O)[C@H](CCNC(=O)OCc2ccccc2)NC(=O)OC(C)(C)C)C[C@H]1CCCC=O, amine bond, H2, Pd(OH)2, AcOH, ethanol, 44.0 mM, 25.0 °C, 40.0 h, 2 steps): 30%
